Results taken from US20230203016A1, “DICARBOXYLIC ACID BISAMIDE DERIVATIVES, USE THEREOF, PHARMACEUTICAL COMPOSITION BASED THEREON AND METHODS FOR PRODUCING DICARBOXYLIC ACID BISAMIDE DERIVATIVES” (TREAMID THERAPEUTICS GMBH, priority 2013, published 2023).

Columns and labels:
[1] = Stability constants of complexes with zinc ions by pH-metric titration, Bjerrum method; type: physicochemical; settings: aqueous solution, CL = 0.02M, M^z+/L = 1:6, ion strength 0.5 (KNO3), 22° C.; for The first stability constant, lgK1 (zinc ions) / The second stability constant, lgK2 (zinc ions) / The third stability constant, lgK3 (zinc ions): Table 5; for The first stability constant of complexes with 1:1 compositions, lgK1, Zn (II): Table 4
Procedure: (§1) Initial 0.05 M solutions of M^z+ metal ions were prepared from nitrates of zinc (Zn(NO3)2·6H2O), calcium (Ca(NO3)2·4H2O), copper sulfate (CuSO4·5H2O), magnesium chloride (MgCl2·6H2O) and Mohr's salt ((NH4)2Fe(SO4)2·6H2O). Standardization of the initial solutions of M^z+ salts was performed by a complexometric titration method with trilon B (M^z+=Zn^2+, Cu^2+, Mg^2+, Ca^2+) and a spectrophotometric method at 490 nm by using o-phenanthroline (M^z+=Fe^2+).
(§2) Given the parameters, such as the amount of a studied compound required for potentiometric titration, a testing procedure and a constant calculation method, the Bjerrum method is most suitable and informative [Yu. P. Galaktionov, M. A. Chistyakov, V. G. Sevastiyanov, etc., “Step Stability Constants of Group IIIB Metal and Lanthanide Complexes with Acetylacetone in Aqueous Solution and the Solubility Products of Metal Triacetylacctonates”, Journal of physical chemistry, 2004, v. 78, No. 9, pp. 1596-1604].
(§3) The method is based on the view that the process of complex formation is stepwise. A main assumption of the Bjerrum method is an assumption about the formation of only […] complexes. The process of complex formation can be schematically described as follows:
(§4) According to the Bjerrum method, a studied compound is titrated with a NaOH solution twice: in the absence of and in the presence of a metal ion. The titration is performed under a high constant concentration of an indifferent electrolyte, which provides the solution with a constant ionic strength.
(§5) For these purposes, highly soluble salts are used, for example, sodium and potassium salts. Concentration step stability constants (Kn) are determined from experiments. In addition, the method provides information concerning the composition of a formed complex, in particular, the maximum possible number of bound ligands (n).
(§6) Traditional procedure for determining step stability constants for complexes by the Bjerrum method of pH-metric titration was performed as follows.
(§7) A sample of a studies compound (3·10^−4 mol) was dissolved in 14.0 ml of a 0.5M aqueous KNO3 solution. One ml of a 0.05M aqueous solution of an M^z+ salt was added under vigorous stirring. The systems were studied with a M^z+/L ratio of 1:6. The pH value of a solution was fixed for coexisting ligands and metal ions. The mixture was titrated with a 0.05M NaOH aqueous solution within a broad range of pH values (up to pH 11.0-11.5). The amount of the used titrant (VNaOH, ml) and the pH value of the solution were registered in each titration point. At the moment when a residue formed, the solution became turbid, or the color of the solution changed, the pH value, the nature of the change and the amount of NaOH spent for the titration were registered. The step of titration was 0.25 ml. The value of lgKn was determined by the Bjerrum curve n=f(pA) for each semi-integer value of the function of complex formation n=n−0.5.
Today the Bjerrum method is frequently used to study complex formation processes. This method provides for the determination of two parameters: the concentration of a free ligand under equilibrium conditions ([L^−]) and the function of complex formation n which is the average number of ligands involved in the complex. Thus, using experimental data, the value [L^−] can be calculated for each time point of the titration (in particular, −lg[L^−]=pA), and n can be calculated by equation (1). When a ligand has several dissociating groups, the KL value in equation (1) matches the value of the dissociation constant with the largest pk value.
The Kn value is found from the Bjerrum curve (curve of the complex formation) n=f(pA) plotted according to equation (2) for each semi-integer value (n=n−0.5) of the function of the complex formation. Thus, the step stability constant will be equal to the reciprocal concentration of a free ligand at a point of n=n−0.5. […]

[2] = Acid dissociation constants (pk) by pH-potentiometric titration, Schwarzenbach method; type: physicochemical; settings: aqueous solution, C = 0.02M, ionic strength 0.5 (KNO3), 22° C.; for pk1: titration with 0.05M HCl aqueous solution (footnote 1); for pk2: titration with 0.05M aqueous NaOH solution (footnote 2)
Procedure: An important property of a ligand to form a complex is dissociation constants (pkn) of studied compounds in an aqueous solution. The pkn values are determined by a potentiometric titration method. The calculation of dissociation constants are performed by the Schwarzenbach method [Grinberg A. A., “An introduction to the chemistry of complex compounds”, fourth ed., Amend., L., Khimiya, 1971].
Titration was performed on an apparatus by using a laboratory ionomer I 120.1. A designed galvanic cell consisted of two electrodes, in particular an indicator glass electrode and a silver chloride comparison electrode. The pH value was measured with an accuracy of ±0.2.
A traditional method for determining acid dissociation step constants (k1, . . . , kn) by using pH-metric titration is the Schwarzenbach method.
A sample of a studied compound (3·10^−4 mol) was dissolved in 15.0 ml of a 0.5M aqueous KNO3 solution. The obtained […] solution was titrated with a 0.05M aqueous solution of NaOH or HCl under stirring. The amount (V, ml) of the used titrant and the pH value of the solution were registered in each titration point. A titration step was equal to 0.5 ml, and 0.2 ml in the proximity to the equivalency point. Titration was continued until the pH value of the solution reached 11.0 to 11.5. The pH value of the solution corresponding to a=0.5 and/or a=1.5 was determined by the titration curve pH=f(a), and the amount of added gram-equivalents of the titrant was calculated in terms of 1 mole of a titrated compound.

[3] = First stability constant of complexes with Fe (III) by pH-metric titration, Bjerrum method; type: physicochemical; settings: aqueous solution, CL = 0.02M; M^z+/L = 1:6; ion strength 0.5 (KNO3), 22° C.
Description: as §2, §3, §4, §5, §6, §7
(§8) Today the Bjerrum method is frequently used to study complex formation processes. […] Thus, using experimental data, the value [L^−] can be calculated for each time point of the titration (in particular, −lg[L^−]=pA), and n can be calculated by equation (1). […]

[4] = First stability constant of complexes with magnesium ions by pH-metric titration, Bjerrum method; type: physicochemical; settings: aqueous solution, CL = 0.02M; M^z+/L = 1:6; ion strength 0.5 (KNO3), 22° C.
Procedure: as §1, §2, §3, §4, §5, §6
(§9) A sample of a studies compound (3·10^−4 mol) was dissolved in 14.0 ml of a 0.5M aqueous KNO3 solution. One ml of a 0.05M aqueous solution of an M^z+ salt was added under vigorous stirring. The systems were studied with a M^z+/L ratio of 1:6. The pH value of a solution was fixed for coexisting ligands and metal ions. […] The value of lgKn was determined by the Bjerrum curve n=f(pA) for each semi-integer value of the function of complex formation n=n−0.5.
as §8

[5] = First stability constant of complexes with Fe (II) by pH-metric titration, Bjerrum method; type: physicochemical; settings: aqueous solution, CL = 0.02M; M^z+/L = 1:6; ion strength 0.5 (KNO3), 22° C.
Procedure: as §1, §2, §3, §4, §5, §6, §9, §8

[6] = First stability constant of complexes with calcium ions by pH-metric titration, Bjerrum method; type: physicochemical; settings: aqueous solution, CL = 0.02M; M^z+/L = 1:6; ion strength 0.5 (KNO3), 22° C.
Procedure: as §1, §2, §3
According to the Bjerrum method, a studied compound is titrated with a NaOH solution twice: in the absence of and in the presence of a metal ion. […]
For these purposes, highly soluble salts are used, for example, sodium and potassium salts. Concentration step stability constants (Kn) are determined from experiments. […]
A sample of a studies compound (3·10^−4 mol) was dissolved in 14.0 ml of a 0.5M aqueous KNO3 solution. […] The value of lgKn was determined by the Bjerrum curve n=f(pA) for each semi-integer value of the function of complex formation n=n−0.5.
as §8

[7] = First stability constant of complexes with copper ions by pH-metric titration, Bjerrum method; type: physicochemical; settings: aqueous solution, CL = 0.02M; M^z+/L = 1:6; ion strength 0.5 (KNO3), 22° C.
Procedure: as §1, §2, §3, §4, §5, §6, §9, §8

[8] = Study of the chelating ability (summary statements on complex formation); type: physicochemical; settings: statement in words

Compound | The first stability constant, lgK1 (zinc ions) [1] | The second stability constant, lgK2 (zinc ions) [1] | The third stability constant, lgK3 (zinc ions) [1] | pk1 [2] | pk2 [2] | The first stability constant of complexes with 1:1 compositions, lgK1, Fe (III) [3] | The first stability constant of complexes with 1:1 compositions, lgK1, Mg (II) [4] | The first stability constant of complexes with 1:1 compositions, lgK1, Fe (II) [5] | The first stability constant of complexes with 1:1 compositions, lgK1, Ca (II) [6] | The first stability constant of complexes with 1:1 compositions, lgK1, Zn (II) [1] | The first stability constant of complexes with 1:1 compositions, lgK1, Cu (II) [7] | melting point [°C] | ability to form complexes with or chelate metal ions [8]
O=C(NCCc1cnc[nH]1)C(=O)NCCc1cnc[nH]1 [Compound 1, N,N′-bis-[2-(1H-imidazol-4-yl)ethyl]ethanediamide] | 4.52 | 4.21 | 3.75 |  |  |  |  |  |  |  |  |  | 
O=C(CC(=O)NCCc1cnc[nH]1)NCCc1cnc[nH]1 [Compound 2, N,N′-bis-[2-(1H-imidazol-4-yl)ethyl]propanediamide] | 4.84 | 4.50 | 2.60 | 7.11^(1) | 11.27^(2) | 5.29 | 2.59 | 5.08 | 2.06 | 4.84 | 4.17 |  | 
O=C(NCCc1c[nH]cn1)c1cccc(C(=O)NCCc2c[nH]cn2)c1 [Compound 6, Bis-1,3-(N^β-histaminyl)isophthalic acid] | 5.62 | 5.15 | 4.04 |  |  |  |  |  |  |  |  |  | 

Second part, led by results:

The first stability constant, lgK1 (zinc ions) [1] | The second stability constant, lgK2 (zinc ions) [1] | The third stability constant, lgK3 (zinc ions) [1] | pk1 [2] | pk2 [2] | The first stability constant of complexes with 1:1 compositions, lgK1, Fe (III) [3] | The first stability constant of complexes with 1:1 compositions, lgK1, Mg (II) [4] | The first stability constant of complexes with 1:1 compositions, lgK1, Fe (II) [5] | The first stability constant of complexes with 1:1 compositions, lgK1, Ca (II) [6] | The first stability constant of complexes with 1:1 compositions, lgK1, Zn (II) [1] | The first stability constant of complexes with 1:1 compositions, lgK1, Cu (II) [7] | melting point [°C] | Compound | ability to form complexes with or chelate metal ions [8]
5.40 | 5.05 | 3.80 | 6.88 | 11.27^(2) | 6.59 | 4.36 | 5.95 | 4.57 | 5.40 | 5.32 | 230 to 231 | O=C(CCC(=O)NCCc1cnc[nH]1)NCCc1cnc[nH]1 [Compound 3, N,N′-bis-[2-(1H-imidazol-4-yl)ethyl]butanediamide] | 
6.25 | 5.80 | 5.05 |  |  |  |  |  |  |  |  |  | O=C(CCCC(=O)NCCc1nccs1)NCCc1nccs1 [Compound 8] | 
5.50 | 5.24 | 4.48 |  |  |  |  |  |  |  |  |  | O=C(CCCC(=O)NCCc1ncc[nH]1)NCCc1ncc[nH]1 [Compound 10] | 
5.05 | 4.70 | 2.87 | 7.16^(1) | 11.89^(2) | 6.60 | 2.82 | 6.27 |  | 5.05 | 4.39 | 166 to 168 | O=C(CCCC(=O)NCCc1cnc[nH]1)NCCc1cnc[nH]1 [Compound 11, N,N′-bis-[2-(1H-imidazol-4-yl)ethyl]pentanediamide] | capable of forming complexes with metal ions
5.46 | 5.03 | 3.38 | 7.13^(1) | 11.95^(2) | 6.10 | 3.72 | 6.40 | 3.60 | 5.46 | 4.62 | 184 to 186 | O=C(CCCCC(=O)NCCc1cnc[nH]1)NCCc1cnc[nH]1 [Compound 12, N,N′-bis-[2-(1H-imidazol-4-yl)ethyl]hexanediamide] | 
